The subject of series [1] is V79 cells. The series can be described thus: Survival (colony-forming ability) of V79 cells treated with CB 1954 in the presence of E. coli B nitroreductase (Table 4). It is filed as cell-based, Hamster. Here is the method: (§1) E. coli B nitroreductase. All treatments were for 2 hours at 37°
(§2) cells were then plated out for their resulting colony-forming ability.
(§3) nitroreductase concentration was 2 μg/ml and NADH was used as a […]

For series [2], the target named is T1, E. coli B nitroreductase (Escherichia coli, UniProt P38489).
T1 construct: endogenous in cells; host or cells: E. coli B cell paste; endogenous enzyme purified by Phenyl-Sepharose and Q-Sepharose chromatography, not recombinant
T1 sequence (P38489 whole entry): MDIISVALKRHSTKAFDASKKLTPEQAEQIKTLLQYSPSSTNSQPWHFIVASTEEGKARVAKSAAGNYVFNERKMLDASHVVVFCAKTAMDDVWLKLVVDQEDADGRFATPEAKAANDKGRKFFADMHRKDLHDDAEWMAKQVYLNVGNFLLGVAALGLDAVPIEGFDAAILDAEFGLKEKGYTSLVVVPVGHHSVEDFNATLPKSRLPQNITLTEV
The series can be described thus: Enzyme kinetic and inhibition studies. It is filed as biochemical. The procedure:
Protein concentration was determined using the a conventional protein assay (Bio-Rad) calibrated against bovine serum albumin.

For series [3], the target named is T2, Walker NAD(P)H dehydrogenase (quinone) EC 1.6.99.2 (Rattus norvegicus, UniProt P05982).
T2 construct: the enzyme isolated from the Walker tumour, EC.1.6.99.2; from tissue; host or cells: Walker tumour (Walker cell)
T2 sequence (P05982 2-274 limits assumed): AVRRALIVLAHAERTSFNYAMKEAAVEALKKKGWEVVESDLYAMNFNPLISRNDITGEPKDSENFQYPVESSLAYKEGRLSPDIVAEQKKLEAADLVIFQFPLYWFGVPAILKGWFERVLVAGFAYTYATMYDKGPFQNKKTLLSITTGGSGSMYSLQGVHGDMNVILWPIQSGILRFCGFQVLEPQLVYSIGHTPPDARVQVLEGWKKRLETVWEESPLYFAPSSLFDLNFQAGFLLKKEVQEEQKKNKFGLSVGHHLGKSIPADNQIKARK
The series can be described thus: Enzyme kinetic studies. It is filed as biochemical. The procedure:
(§4) Quinone reductase activities were assayed by a spectrophotometric method using menadione as a substrate and cytochrome c as a terminal electron acceptor as described in Knox et al, Biochem. Pharmacol., 37, 4671-4677, 1988. Initial rates of reaction were determined by linear regression analysis (r>0.995) and kinetic parameters determined from the resulting plots as described by Roberts et al, Biochem. Pharmacol. 38, 4137-4143, 1989. Protein concentration was determined using the a conventional protein assay (Bio-Rad) calibrated against bovine serum albumin.
(§5) Kinetic parameters for the E. coli nitroreductase and Walker NAD(P)H, dehydrogenase (quinone) EC. […] The absolute rates of reduction of CB 1954 (i.e. under saturating conditions) by the two enzymes is their kcat values and this is 90 fold higher for the E. coli nitroreductase.

The subject of a further series is MAWI cells. The series can be described thus: Survival (colony forming ability) of MAWI cells with enzyme-activated prodrugs (Table 7). It counts as cell-based, human. The procedure: (§6) The effect of enzyme-activated prodrugs on the survival of MAWI
(§7) cells. 1 ml volumes of MAWI cells (2 × 10^5 /ml) were
(§8) with 50 μM prodrug, 500 μM NADH, and 10 μg/ml the enzyme of
(§9) Example 1. After a 2 hour incubation at 37° C., the cells were
(§10) harvested and assayed for their colony forming ability, and the
(§11) supernatant assayed for the concentration of remaining prodrug

The subject of series [4] is V79 cells. Kind of series: Survival (colony forming ability) of V79 cells with enzyme-activated prodrugs (Table 8). It is filed as cell-based. The procedure:
(§12) Generation of cytotoxicity by the action of the E. coli nitroreductase of Example 1 upon the prodrugs 4-[bis(2-chloroethyl)amino]phenylcarbamic acid 4'-nitrobenzyl ester (I where R^1 NH2 =III) and N-4-nitrobenzyloxy-carbonyl-actinomycin D (V) are shown in Table 8.
(§13) The effect of enzyme-activated prodrugs on the survival of V79
(§14) cells. 1 ml volumes of V79 cells (2 × 10^5 /ml) were incubated
(§15) with prodrug, 500 μM NADH, and 10 μg/ml enzyme. After a 2 hour
(§16) incubation at 37° C., the cells were harvested and assayed for
(§17) their colony forming ability, and the supernatant assayed for
(§18) the concentration of remaining prodrug by HPLC.

The target of series [5] is T3, E. coli nitroreductase (Escherichia coli, UniProt P38489).
T3 construct: endogenous in cells; host or cells: E. coli B cell paste; endogenous enzyme purified by Phenyl-Sepharose and Q-Sepharose chromatography, not recombinant
T3 sequence (P38489 whole entry): as the sequence (P38489 whole entry) above
The series can be described thus: Enzymatic reduction of CB 1954 followed by HPLC. It is filed as biochemical, E. coli B. The procedure: Enzymatic reduction of CB 1954. CB 1954 (100 μM and also containing [U-^3 H] C.B 1954 at 1.6×10^5 dpm per nmole), NADH or NAD(P)H (500 μM) were incubated with the active enzyme obtained as described in Example 1, (generally 2 μg/ml E. coli nitroreductase or 35 μg/ml Walker NAD(P)H dehydrogenase (quinone) EC 1.6.99.2) in 10 mM sodium phosphate buffer (pH 7) under either air or helium. At various times aliquots (10 μl) were injected onto a Partisphere SCX (110×4.7 mm) HPLC column and eluted isocratically (2 ml/min) with 100 mM NaH2 PO4.
(§19) The eluate was continuously monitored for adsorption at 310, 260 and 360 nm and the spectra of eluting components recorded using a diode-array detector. Samples (0.5 ml) were collected and the tritium activity of each determined by liquid scintillation counting. This separation system could resolve all the expected reduction products.
(§20) To confirm further the identity of any reduction products, the above reduction mixture was also injected onto an ODS-5 reverse phase HPLC column and eluted (1 ml/min) with a methanol gradient (0-30% linear over 30 min, 30-100% linear over 10 min.) in 0.1 M sodium phosphate buffer (pH 7).

Series [6] concerns the target T2, Walker NAD(P)H dehydrogenase (quinone) EC 1.6.99.2. Kind of series: Enzymatic reduction of CB 1954 followed by HPLC. It is filed as biochemical. The conditions noted are these: reduction of 50 μM of CB 1954. The procedure:
Enzymatic reduction of CB 1954. […] At various times aliquots (10 μl) were injected onto a Partisphere SCX (110×4.7 mm) HPLC column and eluted isocratically (2 ml/min) with 100 mM NaH2 PO4.
as §19, §20

The target of series [7] is T1, E. coli B nitroreductase. Kind of series: % drug reduction in the V79 incubations (Table 4). It counts as biochemical. The procedure:
The effect of CB 1954 on the survival of V79 cells in the presence of the
as §1, §2, §3

Series [8] has as its target T3, E. coli nitroreductase. The series can be described thus: Substrate specificity: relative rate of NADH oxidation by HPLC (Table 5). It is filed as biochemical. The conditions noted are these: relative to CB 1954; 37° C. in air, NADH 500 μM, substrate 100 μM. Here is the method:
The ability of the E. coli nitroreductase of the invention to reduce nitro-compounds other than CB 1954 was determined by HPLC by following the decrease in the peak area of NADH resulting from its oxidation. The experiments were carried out as above but the aliquots were injected onto a Partisphere SAX (110×4.7 mm) HPLC column and eluted isocratically (1 ml/min) with 75 mM NaH2 PO4.
The relative rates of reduction of various nitrobenzamides and
nitrobenzenes with E. coli nitroreductase enzyme. Reduction
rates were determined by the resulting oxidation of NADH. All
reactions were carried out at 37° C. in air, with NADH (500
electron donor, at an initial substrate concentration of 100 μM.

The target of series [9] is T1, E. coli B nitroreductase. The series can be described thus: % drug reduction in the MAWI incubations, remaining prodrug by HPLC (Table 7). It is filed as biochemical. The procedure:
as §6, §7, §8, §9, §10, §11

Series [10] concerns the target T3, E. coli nitroreductase. The series can be described thus: % drug reduction in the V79 incubations, remaining prodrug by HPLC (Table 8). It counts as biochemical. The conditions noted are these: NR + prodrug + NADH, prodrug concentration not given. The procedure:
as §12, §13, §14, §15, §16, §17, §18

Series [11] concerns the target T3, E. coli nitroreductase. The series can be described thus: Cofactor ability for the reduction of CB 1954 (FIG. 1). It counts as biochemical. The conditions noted are these: compared with NADH; CB 1954 100 μM, reduced cofactor 500 μM. Here is the method:
(§21) At various times aliquots (10 μl) were injected onto a Partisil SCX (240×4.7 mm) HPLC column and eluted isocratically (2 ml/min) with 100 mM NaH2 PO4. The eluate was continuously monitored for absorption at 320, 260 and 360 nm and the concentration of CB 1954 calculated by integration of the peak corresponding to this compound on the HPLC trace.
(§22) The ability of the nitroreductase enzyme to be able to use a synthetic cofactor in place of NADH or NADPH for the reduction of CB 1954 is shown in FIG. 1. […] Therefore 1,4-dihydro-nicotinic acid riboside is a selective cofactor for the E. coli nitroreductase enzyme and cannot be used by mammalian DT diaphorase.

The next series addresses T4, Walker DT diaphorase (Rattus norvegicus, UniProt P05982).
T4 construct: the enzyme isolated from the Walker tumour, EC.1.6.99.2; from tissue; host or cells: Walker tumour (Walker cell)
T4 sequence (P05982 2-274 limits assumed): T2 sequence (P05982 2-274 limits assumed)
The description is as above. The conditions noted are these: CB 1954 100 μM, reduced cofactor 500 μM. It counts as biochemical. The procedure: as §21, §22

A further series deals with CC1=CC(=O)c2ccccc2C1=O. Kind of series: Enzyme kinetic and inhibition studies. It is filed as biochemical, E. coli B.
The subject of series [12] is NC(=O)c1cc(N2CC2)c([N+](=O)[O-])cc1[N+](=O)[O-]. The series can be described thus: Enzyme kinetic and inhibition studies. It counts as biochemical, E. coli B.
Substrate in series [13]: CC1=CC(=O)c2ccccc2C1=O
Kind of series: Enzyme kinetic studies. It is filed as biochemical. Here is the method:
as §4, §5

Substrate in series [14]: NC(=O)c1cc(N2CC2)c([N+](=O)[O-])cc1[N+](=O)[O-]
Kind of series: Enzyme kinetic studies. It is filed as biochemical. Here is the method:
as §4, §5

[15] abbreviates: NR 2 μg/ml + 50 μM CB 1954, no NADH.
The mark [16] stands for this setting: NR 2 μg/ml + CB 1954 + 500 μM NADH.
Where [17] appears, read: NR 10 μg/ml + 50 μM prodrug + 500 μM NADH.

As for `NC(=O)C1=CN([C@@H]2O[C@H](COP(=O)(O)OP(=O)(O)OC[C@H]3O[C@@H](n4cnc5c(N)ncnc54)[C@H](O)[C@@H]3O)[C@@H](O)[C@H]2O)C=CC1` [NADH], the “% SURVIVAL” value in the series with V79 cells [1] (500 μM NADH), in the series on MAWI cells (500 μM NADH alone) and with V79 cells [4] (500 μM NADH alone) was 100% throughout. Further, on E. coli B nitroreductase [2], the “Km of the nitroreductase for NADH less than the Walker enzyme” value was “about 10 fold”. For the same molecule, the Km (commonly the substrate concentration at which the rate is half of its maximum) in series [3] stood at 75 µM.
As to `NC(=O)c1cc(N2CC2)c([N+](=O)[O-])cc1[N+](=O)[O-]` [CB 1954, 5-(aziridin-1-yl)-2,4-dinitrobenzamide], the “rate of reduction of CB 1954 or product formation” value at E. coli nitroreductase [5] (co-factor NAD(P)H or NADH, under helium) is “the same”. The “nitroreductase more active per mg protein than NAD(P)H dehydrogenase (quinone), initial rates of 4-hydroxylamine formation” value on E. coli nitroreductase [5] (standard conditions) turned out to be 31.2 fold. Moreover, the “nitroreductase more active than NAD(P)H dehydrogenase (quinone) by CB 1954 reduction” value at E. coli nitroreductase [5] (standard conditions) is given as 62 fold. Besides, the 4-hydroxylamine formed came to 33 µM on E. coli nitroreductase [5] (when 67 μM of CB 1954 was reduced) and 50 µM in series [6]. Besides, the “% SURVIVAL” value was 100% in the series on V79 cells [1] (50 μM CB 1954, 2 hours 37° C.); 41% in the series on V79 cells [1] (NADH + CB 1954, no enzyme, 2 hours 37° C.); 99% in the series with V79 cells [1] (setting [15]); 0.024% with V79 cells [1] (setting [16]). The “% DRUG REDUCTION” value at E. coli B nitroreductase [7] (50 μM CB 1954 alone) is reported as below 1.0%; at E. coli B nitroreductase [7] (NADH + CB 1954, no enzyme), below 1.0%; at E. coli B nitroreductase [7] (setting [15]) it was below 1.0%; at E. coli B nitroreductase [7] (setting [16]), 72%. Besides, on E. coli nitroreductase [8], the “RELATIVE RATE OF NADH OXIDATION NR” value stood at 1.0. At E. coli B nitroreductase [2] (saturating conditions), the “kcat for CB 1954 reduction higher for the E. coli nitroreductase than Walker enzyme” value came to 90 fold.
For `CN(C)C(=O)c1cc(N2CC2)c([N+](=O)[O-])cc1[N+](=O)[O-]` [CB 10-107], the “% SURVIVAL” value in the series on MAWI cells (50 μM prodrug alone, 2 hour 37° C.) is on record as 85.6%; in the series with MAWI cells (NADH + prodrug, no enzyme) it was 87.9%; with MAWI cells (setting [17]), 5.0%; in the series on V79 cells [4] (NR + prodrug + NADH, prodrug concentration not given), 5.0%. Moreover, the “% DRUG REDUCTION” value at E. coli B nitroreductase [9] (50 μM prodrug alone) is below 1.0%; on E. coli B nitroreductase [9] (NADH + prodrug, no enzyme), below 1.0%; at E. coli B nitroreductase [9] (setting [17]), 45%; at E. coli nitroreductase [10], 45%.
As for `O=C(O)C1=CN([C@@H]2O[C@H](CO)[C@@H](O)[C@H]2O)C=CC1` [1,4-dihydro-nicotinic acid riboside], the “ability to act as a cofactor for the reduction of CB 1954” value is given as “equal efficiency” at E. coli nitroreductase [11] and “cannot utilise” at Walker DT diaphorase.
Regarding “E. coli B nitroreductase (Escherichia coli K-12)”, the Km with CC1=CC(=O)c2ccccc2C1=O amounted to 80 µM; in series [12] it was 862 ± 145 µM.

B1: Walker NAD(P)H dehydrogenase (quinone) EC. 1.6.99.2 (Rattus norvegicus) (protein)
chain: T2 sequence (P05982 2-274 limits assumed)
notes: the enzyme isolated from the Walker tumour, EC.1.6.99.2; from tissue; host or cells: Walker tumour (Walker cell)
Turning to B1, the Km was 1.3 µM in “Enzyme kinetic studies [13]” and 826 ± 46 µM in the series “Enzyme kinetic studies [14]”.

The values are drawn from patent US5977065A, “Bacterial nitroreductase for the reduction of CB1954 and analogues thereof to a cytotoxic form” (Cancer Research Campaign Technology Limited, priority 1991, dated 1999).
